Earlier results as cited in patent US20210379028A1, “TREATMENT OF DEPRESSIVE DISORDERS” (Ovid Therapeutics Inc., priority 2017, published 2021).

Legend:
[1] = patients with severe major depressive disorder, combined with escitalopram
[2] = patients with a history of drug abuse who received gaboxadol
[3] = three-month efficacy study, treatment of insomnia

Oc1noc2c1CCNC2 [gaboxadol, 4,5,6,7-tetrahydroisoxazolo [5,4-c] pyridine-3-ol]
benefit of combining gaboxadol with escitalopram over escitalopram alone [1]: no additional benefit
psychiatric adverse events [2]: steep increase
effects in sleep onset and sleep maintenance [3]: failed to show significant effects
